Assay results taken from article PMC11374673, “Discovery of isoquinoline sulfonamides as allosteric gyrase inhibitors with activity against fluoroquinolone-resistant bacteria” (Nature Chemistry, 2024).

System: E. coli W3110
Assay: H-89 derivatives rescreen, 50 µM
Assay type: cell-based
Conditions: Escherichia coli, H-89 derivative rescreen, highest 50 µM
Method: From glycerol stocks, E. coli W3110 was cultured on blood agar plates (PB5039A, Thermo Scientific) by overnight (18 ± 2 h) aerobic incubation at 37 °C. A single colony was transferred to tryptic soy broth (TSB, 02-200-500, Scharlab). The cultures were grown to exponential phase (OD600 of 0.5) at 37 °C. The bacterial suspensions were diluted 200-fold in cation-adjusted Mueller–Hinton broth (CAMHB) and 99 µl was added to a library of test compounds (1 µl 10 mM DMSO stock, per well in technical duplicates) in polypropylene 96-well microtitre plates to reach a volume of 100 µl and a final concentration of 100 µM for each test compound and a maximum of 1% DMSO. […] Screening hits were selected from the wells where no visible bacterial growth was observed, as compared with the inoculum controls containing 1% DMSO. The follow-up screen of H-89 derivatives was performed under similar conditions with a final concentration of 50 µM.

Structure (SMILES)	MIC
O=S(=O)(NCCNCCCc1ccc(-c2cnc3[nH]ccc3c2)cc1)c1cccc2cnccc12 [Compound 45]	> 50 µM
CN(CCNCCCc1ccc(-c2cccnc2)cc1)S(=O)(=O)c1cccc2cnccc12 [Compound 10]	> 50 µM
O=C(CCc1ccc(-c2cnc3[nH]ccc3c2)cc1)NCCNS(=O)(=O)c1ccccc1 [Compound 12]	> 50 µM
CN(CCNC/C=C/c1ccc(-c2cccnc2)cc1)S(=O)(=O)c1cccc2cnccc12 [Compound 8]	> 50 µM
O=C(CCC#Cc1cnc2[nH]ccc2c1)NCCNS(=O)(=O)c1cccc2cnccc12 [Compound 21]	> 50 µM
Nc1nccc2c(S(=O)(=O)NCCNC/C=C/c3ccc(-c4cccnc4)cc3)cccc12 [Compound 34]	> 50 µM
CC(C)(C)c1cc(NC(=O)CCC#Cc2ccc(N)nc2)no1 [Compound 29]	> 50 µM
CS(=O)(=O)NCCNC/C=C/c1ccc(-c2cccnc2)cc1 [Compound 36]	> 50 µM
O=S(=O)(NCCNC/C=C/c1ccc(-c2ccc3ccccc3c2)cc1)c1cccc2cnccc12 [Compound 3]	> 50 µM
O=S(=O)(NCCNC/C=C/c1ccccc1-c1ccc2c(c1)OCO2)c1cccc2cnccc12 [Compound 46]	> 50 µM

The next lines start with the values.

MIC	Structure (SMILES)
> 50 µM	O=S(=O)(NCCNC/C=C/c1ccc(-c2ccccc2)cc1)c1cccc2cnccc12 [Compound 2]
> 50 µM	O=C(CCc1ccc(-c2cnc3[nH]ccc3c2)cc1)NCCNS(=O)(=O)c1ccc(Cl)cc1 [Compound 13]
> 50 µM	Nc1ccc(-c2ccc(CCC(=O)NCCNS(=O)(=O)c3cccc4cnccc34)cc2)cn1 [Compound 41]
> 50 µM	CN(C/C=C/c1ccc(-c2cccnc2)cc1)CCNS(=O)(=O)c1cccc2cnccc12 [Compound 9]
> 50 µM	Cc1ccc(S(=O)(=O)NCCNC(=O)CCc2ccc(-c3cnc4[nH]ccc4c3)cc2)cc1 [Compound 15]
> 50 µM	O=C(CCc1ccc(-c2cnc3[nH]ccc3c2)cc1)NCCNS(=O)(=O)c1cccc(Cl)c1 [Compound 24]
> 50 µM	O=S(=O)(NCCNC/C=C/c1ccc(-c2ccccc2)cc1)c1cccc2ccccc12 [Compound 4]
> 50 µM	O=C(CCc1ccc(-c2cnc3[nH]ccc3c2)cc1)NCCNS(=O)(=O)c1cccc([N+](=O)[O-])c1 [Compound 23]
> 50 µM	O=C(CCc1ccc(-c2cnc3[nH]ccc3c2)cc1)NCCNS(=O)(=O)c1ccc(F)cc1 [Compound 25]
> 50 µM	CC(C)(C)c1cc(NC(=O)CCC#Cc2cccnc2)no1 [Compound 27]
> 50 µM	O=C(CCc1ccc(-c2cnc3[nH]ccc3c2)cc1)NCCNS(=O)(=O)c1cccc2cnccc12 [Compound 44]
> 50 µM	O=[N+]([O-])c1ccccc1S(=O)(=O)NCCNC/C=C/c1ccc(-c2cccnc2)cc1 [Compound 7]
